Measurements published in the supplement of paper PMC10307832.

Columns and labels:
Experiment in all cases: relative viability (nuclei count vs DMSO), 5 days (fraction); higher = more cells survive
FH535 = compound: CC1=C(C=CC(=C1)[N+](=O)[O-])NS(=O)(=O)C2=C(C=CC(=C2)Cl)Cl [FH535]
In short: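 Five library-drug doses spaced by √10 were pinned onto vehicle-anchored 1536-well plates of lung cancer cell lines that had been kept overnight at 37 °C. Cells went 5 days without medium change, then were fixed, permeabilised and Hoechst-stained together, imaged at 4× and counted by MetaXpress. Viability is the ratio of treated-well to vehicle-well nuclei, taken as a median over plates. Plates required control CV below 25% and at least one doubling.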

FH535 + Palbociclib = compound: CC1=C(C=CC(=C1)[N+](=O)[O-])NS(=O)(=O)C2=C(C=CC(=C2)Cl)Cl [FH535] + CC(=O)c1c(C)c2cnc(Nc3ccc(N4CCNCC4)cn3)nc2n(C2CCCC2)c1=O [Palbociclib] (partner 0.5 µM)
In short: (§1)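 The day after seeding in 1536-well plates, lung cancer cell lines were treated by pin tool with a single drug, or with a fixed anchor-drug dose together with five library-drug doses (not always all listed) in √10 steps. After 5 days, a combined fix-and-stain solution (final 0.05% Triton X-100, 1% formaldehyde, 1 ug/ml Hoechst) was added. Nuclei counted on 4× images gave relative viability as treated counts over vehicle counts, reported as the median of duplicate plates.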

FH535 + OSI-027 = compound: CC1=C(C=CC(=C1)[N+](=O)[O-])NS(=O)(=O)C2=C(C=CC(=C2)Cl)Cl [FH535] + COc1cccc2cc(-c3nc([C@H]4CC[C@H](C(=O)O)CC4)n4ncnc(N)c34)[nH]c12 [OSI-027] (partner 0.5 µM)
In short: as §1

FH535 + Vorinostat = compound: CC1=C(C=CC(=C1)[N+](=O)[O-])NS(=O)(=O)C2=C(C=CC(=C2)Cl)Cl [FH535] + O=C(CCCCCCC(=O)Nc1ccccc1)NO [Vorinostat] (partner 1 µM)
In short: as §1

FH535 + AZD7762 = compound: CC1=C(C=CC(=C1)[N+](=O)[O-])NS(=O)(=O)C2=C(C=CC(=C2)Cl)Cl [FH535] + NC(=O)Nc1cc(-c2cccc(F)c2)sc1C(=O)N[C@H]1CCCNC1 [AZD7762] (partner 0.2 µM)
In short: as §1

FH535 + Decitabine = compound: CC1=C(C=CC(=C1)[N+](=O)[O-])NS(=O)(=O)C2=C(C=CC(=C2)Cl)Cl [FH535] + Nc1ncn([C@H]2C[C@H](O)[C@@H](CO)O2)c(=O)n1 [Decitabine] (partner 2 µM)
In short: as §1

FH535 + Trametinib = compound: CC1=C(C=CC(=C1)[N+](=O)[O-])NS(=O)(=O)C2=C(C=CC(=C2)Cl)Cl [FH535] + CC(=O)Nc1cccc(-n2c(=O)n(C3CC3)c(=O)c3c(Nc4ccc(I)cc4F)n(C)c(=O)c(C)c32)c1 [Trametinib] (partner 0.02 µM)
In short: as §1

FH535 + Olaparib = compound: CC1=C(C=CC(=C1)[N+](=O)[O-])NS(=O)(=O)C2=C(C=CC(=C2)Cl)Cl [FH535] + O=C(c1cc(Cc2n[nH]c(=O)c3ccccc23)ccc1F)N1CCN(C(=O)C2CC2)CC1 [Olaparib] (partner 8 µM)
In short: as §1

FH535 + Tozasertib = compound: CC1=C(C=CC(=C1)[N+](=O)[O-])NS(=O)(=O)C2=C(C=CC(=C2)Cl)Cl [FH535] + Cc1cc(Nc2cc(N3CCN(C)CC3)nc(Sc3ccc(NC(=O)C4CC4)cc3)n2)n[nH]1 [Tozasertib] (partner 0.1 µM)
In short: as §1

FH535 + Pemetrexed = compound: CC1=C(C=CC(=C1)[N+](=O)[O-])NS(=O)(=O)C2=C(C=CC(=C2)Cl)Cl [FH535] + Nc1nc2[nH]cc(CCc3ccc(C(=O)N[C@@H](CCC(=O)O)C(=O)O)cc3)c2c(=O)[nH]1 [Pemetrexed] (partner 0.2 µM)
In short: as §1

FH535 + Phenformin = compound: CC1=C(C=CC(=C1)[N+](=O)[O-])NS(=O)(=O)C2=C(C=CC(=C2)Cl)Cl [FH535] + N=C(N)NC(=N)NCCc1ccccc1 [Phenformin] (partner 250 µM)
In short: as §1

FH535 + Foretinib = compound: CC1=C(C=CC(=C1)[N+](=O)[O-])NS(=O)(=O)C2=C(C=CC(=C2)Cl)Cl [FH535] + COc1cc2c(Oc3ccc(NC(=O)C4(C(=O)Nc5ccc(F)cc5)CC4)cc3F)ccnc2cc1OCCCN1CCOCC1 [Foretinib] (partner 0.25 µM)
In short: as §1

FH535 + Dasatinib = compound: CC1=C(C=CC(=C1)[N+](=O)[O-])NS(=O)(=O)C2=C(C=CC(=C2)Cl)Cl [FH535] + Cc1nc(Nc2ncc(C(=O)Nc3c(C)cccc3Cl)s2)cc(N2CCN(CCO)CC2)n1 [Dasatinib] (partner 0.075 µM)
In short: as §1

FH535 + Luminespib = compound: CC1=C(C=CC(=C1)[N+](=O)[O-])NS(=O)(=O)C2=C(C=CC(=C2)Cl)Cl [FH535] + CCNC(=O)c1noc(-c2cc(C(C)C)c(O)cc2O)c1-c1ccc(CN2CCOCC2)cc1 [Luminespib] (partner 0.01 µM)
In short: as §1

Cell Line: NCI-H1648
- relative viability (FH535; 0.04 µM): 0.645
- relative viability (FH535; 0.1265 µM): 0.828
- relative viability (FH535; 0.4 µM): 0.837
- relative viability (FH535; 1.265 µM): 0.641
- relative viability (FH535 + Palbociclib; first compound 0.1265 µM): 0.219
- relative viability (FH535 + Palbociclib; first compound 0.4 µM): 0.273
- relative viability (FH535 + Palbociclib; first compound 1.265 µM): 0.225
- relative viability (FH535 + OSI-027; first compound 0.04 µM): 0.243
- relative viability (FH535 + OSI-027; first compound 0.4 µM): 0.254
- relative viability (FH535 + OSI-027; first compound 1.265 µM): 0.243
- relative viability (FH535 + Vorinostat; first compound 0.1265 µM): 0.595
- relative viability (FH535 + Vorinostat; first compound 0.4 µM): 0.709
- relative viability (FH535 + Vorinostat; first compound 1.265 µM): 0.473
- relative viability (FH535 + AZD7762; first compound 0.1265 µM): 0.654
- relative viability (FH535 + AZD7762; first compound 0.4 µM): 0.612
- relative viability (FH535 + AZD7762; first compound 1.265 µM): 0.625
- relative viability (FH535 + Decitabine; first compound 0.1265 µM): 0.585
- relative viability (FH535 + Decitabine; first compound 0.4 µM): 0.478
- relative viability (FH535 + Decitabine; first compound 1.265 µM): 0.398
- relative viability (FH535 + Trametinib; first compound 0.1265 µM): 0.441
- relative viability (FH535 + Trametinib; first compound 0.4 µM): 0.544
- relative viability (FH535 + Trametinib; first compound 1.265 µM): 0.352
- relative viability (FH535 + Olaparib; first compound 0.1265 µM): 0.888
- relative viability (FH535 + Olaparib; first compound 0.4 µM): 1.08
- relative viability (FH535 + Olaparib; first compound 1.265 µM): 0.383
- relative viability (FH535 + Tozasertib; first compound 0.04 µM): 0.397
- relative viability (FH535 + Tozasertib; first compound 0.4 µM): 0.603
- relative viability (FH535 + Tozasertib; first compound 1.265 µM): 0.281
- relative viability (FH535 + Pemetrexed; first compound 0.1265 µM): 0.655
- relative viability (FH535 + Pemetrexed; first compound 0.4 µM): 0.532
- relative viability (FH535 + Pemetrexed; first compound 1.265 µM): 0.635

Cell Line: SW 900
- relative viability (FH535; 0.04 µM): 0.962
- relative viability (FH535; 0.1265 µM): 0.754
- relative viability (FH535; 0.4 µM): 0.789
- relative viability (FH535; 1.265 µM): 0.743
- relative viability (FH535 + Palbociclib; first compound 0.04 µM): 0.516
- relative viability (FH535 + Palbociclib; first compound 0.1265 µM): 0.503
- relative viability (FH535 + Palbociclib; first compound 0.4 µM): 0.507
- relative viability (FH535 + Palbociclib; first compound 1.265 µM): 0.454
- relative viability (FH535 + OSI-027; first compound 0.04 µM): 0.531
- relative viability (FH535 + OSI-027; first compound 0.1265 µM): 0.582
- relative viability (FH535 + OSI-027; first compound 0.4 µM): 0.505
- relative viability (FH535 + OSI-027; first compound 1.265 µM): 0.333
- relative viability (FH535 + Vorinostat; first compound 0.04 µM): 0.483
- relative viability (FH535 + Vorinostat; first compound 0.1265 µM): 0.257
- relative viability (FH535 + Vorinostat; first compound 0.4 µM): 0.378
- relative viability (FH535 + Vorinostat; first compound 1.265 µM): 0.358
- relative viability (FH535 + AZD7762; first compound 0.04 µM): 0.42
- relative viability (FH535 + AZD7762; first compound 0.1265 µM): 0.599
- relative viability (FH535 + AZD7762; first compound 0.4 µM): 0.403
- relative viability (FH535 + AZD7762; first compound 1.265 µM): 0.542
- relative viability (FH535 + Phenformin; first compound 0.04 µM): 0.569
- relative viability (FH535 + Phenformin; first compound 0.1265 µM): 0.667
- relative viability (FH535 + Phenformin; first compound 0.4 µM): 0.48
- relative viability (FH535 + Phenformin; first compound 1.265 µM): 0.236
- relative viability (FH535 + Decitabine; first compound 0.04 µM): 0.443
- relative viability (FH535 + Decitabine; first compound 0.1265 µM): 0.547
- relative viability (FH535 + Decitabine; first compound 0.4 µM): 0.418
- relative viability (FH535 + Decitabine; first compound 1.265 µM): 0.418
- relative viability (FH535 + Trametinib; first compound 0.04 µM): 0.839
- relative viability (FH535 + Trametinib; first compound 0.1265 µM): 1.09
- relative viability (FH535 + Trametinib; first compound 0.4 µM): 0.853
- relative viability (FH535 + Trametinib; first compound 1.265 µM): 0.75
- relative viability (FH535 + Olaparib; first compound 0.04 µM): 0.923
- relative viability (FH535 + Olaparib; first compound 0.1265 µM): 0.838
- relative viability (FH535 + Olaparib; first compound 0.4 µM): 0.804
- relative viability (FH535 + Olaparib; first compound 1.265 µM): 0.657
- relative viability (FH535 + Tozasertib; first compound 0.04 µM): 0.535
- relative viability (FH535 + Tozasertib; first compound 0.1265 µM): 0.525
- relative viability (FH535 + Tozasertib; first compound 0.4 µM): 0.536
- relative viability (FH535 + Tozasertib; first compound 1.265 µM): 0.484
- relative viability (FH535 + Foretinib; first compound 0.04 µM): 0.745
- relative viability (FH535 + Foretinib; first compound 0.1265 µM): 0.94
- relative viability (FH535 + Foretinib; first compound 0.4 µM): 0.764
- relative viability (FH535 + Foretinib; first compound 1.265 µM): 0.541
- relative viability (FH535 + Dasatinib; first compound 0.04 µM): 0.481
- relative viability (FH535 + Dasatinib; first compound 0.1265 µM): 0.748
- relative viability (FH535 + Dasatinib; first compound 0.4 µM): 0.507
- relative viability (FH535 + Dasatinib; first compound 1.265 µM): 0.63
- relative viability (FH535 + Luminespib; first compound 0.04 µM): 0.186
- relative viability (FH535 + Luminespib; first compound 0.1265 µM): 0.163
- relative viability (FH535 + Luminespib; first compound 0.4 µM): 0.161
- relative viability (FH535 + Luminespib; first compound 1.265 µM): 0.178
- relative viability (FH535 + Pemetrexed; first compound 0.04 µM): 0.441
- relative viability (FH535 + Pemetrexed; first compound 0.1265 µM): 0.479
- relative viability (FH535 + Pemetrexed; first compound 0.4 µM): 0.501
- relative viability (FH535 + Pemetrexed; first compound 1.265 µM): 0.472
